Assay results reported in US12606529B2, “Sulfur and amide tropolone inhibitors of nucleotidyl transferases and uses therefor” (Saint Louis University, priority 2019, dated 2026).
In brackets after ≈: the same amount, converted by molar mass. Read-outs that look alike come from different tables or passages of the source.

What was measured:
[1] = in vitro; conditions: human, CC50 (μM), Table 2 amides; HepDES19 cells, MTT
[2] = system: HBV replication; experiment: HBV replication inhibition in HepDES19 cells (strand-preferential qPCR); conditions: for EC50: Hepatitis B virus
Experimental: Cells used for toxicity and HBV studies.
HBV replication inhibition studies. HepDES19 cells were seeded in 96-well plates at 4×10^4 cells per well in the absence of tetracycline. Test compounds in a final DMSO concentration of 1% were applied to cells 48 hours after induction of HBV replication and cells were incubated with compounds for 72 hours. Cells were washed in 200 μL of phosphate buffered saline (PBS) and lysed in 150 μL of core lysis buffer (10 mM Tris pH 7.4, 1% Tween20, 150 mM NaCl). Cells were incubated at room temperate on an orbital shaker at 350 rpm for 40 minutes. Cell lysate was transferred to a 96 well polymerase chain reaction (PCR) plate and centrifuged at 3300×g for 5 minutes. The supernatant (50 μL) from the cell lysate was transferred to a 96-well PCR plate and mixed with 20 units of micrococcal nuclease and 100 μM CaCl2. The lysate was incubated for 1 hour at 37° C., and then the nuclease was inactivated at 70° C. for ten minutes. Qiagen protease (0.005 Anson units) was added to the lysate and the mixture was incubated overnight. Qiagen protease was then inactivated at 95° C. for ten minutes.
The crude lysate was used as the template for strand-preferential quantitative polymerase chain reaction (q-PCR) analysis. Quantitative PCR was performed with 40 cycles of 95° C. for 15 s and 60° C. for 1 minute employing the Kappa Probe Force universal PCR master mix.

[3] = system: C. neoformans var. grubii, KN99; experiment: C. neoformans growth inhibition assay (limiting dilution); type: cell-based, Cryptococcus neoformans; conditions: Cryptococcus neoformans, 48 h, Table 2 amides; 48 h, 35° C., tested 0.19 to 50 μM; read-out: C. neoformans MIC80
Experimental: Cell types used for C. neoformans studies. All inhibition assays were performed with C. neoformans var. grubii, KN99 (serotype A, MAT). Two clinical strains of C. neoformans var. grubii, serotype A, were provided by Tamara Doering and Andre Spec. […] Cells were diluted to OD650 0.001 in YNB-02 02 (0.67% yeast nitrogen base, 0.2% dextrose, pH 7.0 with 50 mM MOPs)+1% DMSO prior to addition to the plates for the inhibition assays.
C. neoformans growth inhibition assays. Compounds were tested in a limiting dilution assay with a starting optical density (at 650 nm) of 0.001 in YNB-02 plus 1% DMSO. Cells plus compound were incubated in 96-well clear round bottom plates covered with a Breath-easy® membrane without shaking for 48 hours at 35° C. Before measuring cell density, plates were shaken on a microtiter plate shaker at 900 rpm for 3 minutes to resuspend cells and optical density was measured at 650 nm. […] Each assay was done in triplicate and all values are the average of two or more independent assays. The data are presented as the average cell density as a percent of DMSO-only treated cells. MICs are reported as the minimal concentration needed to inhibit 80% of C. neoformans growth relative to vehicle-treated controls.

[4] = system: HSV-1; experiment: Anti-HSV-1 replication assay (Vero cells, plaque titer); type: cell-based, herpes simplex virus 1; conditions: Human alphaherpesvirus 1, Vero, Table 2 amides, values separated by / are repeats; for log reduction at 5 µM: compound at 5 μM, read-out: HSV-1 suppression 5 μM; for log reduction at 1 µM: compound at 1 μM, read-out: HSV-1 suppression 1 μM
[5] = target: T1, human RNaseH1 (Homo sapiens, UniProt O60930); experiment: Biochemical inhibition of human RNaseH1 activity; conditions: Table 2 amides; for IC50: read-out: HuRH1 IC50
T1 sequence (O60930 1-286): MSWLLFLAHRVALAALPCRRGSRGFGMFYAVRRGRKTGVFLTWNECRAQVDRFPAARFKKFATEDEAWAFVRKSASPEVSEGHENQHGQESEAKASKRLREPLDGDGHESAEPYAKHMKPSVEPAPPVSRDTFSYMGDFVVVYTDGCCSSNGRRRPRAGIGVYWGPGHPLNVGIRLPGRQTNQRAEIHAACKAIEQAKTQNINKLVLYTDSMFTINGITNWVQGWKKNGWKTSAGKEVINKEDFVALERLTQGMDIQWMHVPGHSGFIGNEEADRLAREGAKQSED
Experimental: Biochemical inhibition of human RNaseH1 activity. Quantitative inhibition of the human RNaseH1 in the biochemical assays was assessed using a molecular beacon assay as described previously (Edwards et al., 2017). Recombinant human RNaseH 1 (0.3 μg) was incubated with 100 nM RNA:DNA substrate, 50 mM HEPES pH 8.0, 100 mM NaCl, 2 mM Tris(2-carboxyethyl)phosphine hydrochloride (TCEP), 0.05% Tween20, 5 units of RNaseOut, test compounds (0 to 500 μM), and 5% DMSO in a 100 μL reaction volume. The substrate was formed by annealing a complementary RNA oligonucleotide to a hairpin DNA oligonucleotide to hold the hairpin DNA oligonucleotide in an open conformation. The DNA oligonucleotide has a 5′ fluorescein reporter and a 3′ black hole quencher. When the RNA is degraded from the substrate the DNA oligonucleotide closes to form a hairpin structure, decreasing in signal intensity. Reactions were initiated with 5 mM MgCl2 and fluorescence was read using a Synergy HTS multi-mode plate reader at 37° C. Alternatively, the HBV RNaseH version used was MBP-HRHgtCΔ5, a genotype C isolate which lacks the C-terminal 35 amino acids of the HBV RNaseH domain that are predicted to be unstructured. Quantitative inhibition of the human RNaseH1 in biochemical assays was assessed using a FRET-based RNaseH assay under conditions previously reported for an RNaseH molecular beacon assay (Edwards et al., 2017). […] Cleavage of the RNA strand released the fluorescein from quenching, increasing fluorescence. Reactions were monitored for 90 min at 37° C. in a plate reader and initial reaction rates were calculated. Reactions contained escalating concentrations of the compounds.

[6] = HepDES19, 72 h, Table 2 amides, HBV replication, HepDES19 cells, plus-polarity DNA, 72 h
[7] = HepDES19, read-out: EC50 against HBV replication

Compound | CC50 at 24 h [1] | EC50 against HBV replication [2] | EC50 [2, 6] | SI (CC50/EC50) ([2]; Table 2 amides, cytotoxicity CC50 over HBV replication EC50) | MIC80 [3] | log reduction at 5 µM [4] | SIApparent (huRH1 IC50/EC50) ([5]; huRH1 IC50 over HBV replication EC50) | IC50 [5] | log reduction at 1 µM [4] | EC50 [2, 7]
Cc1cc(O)c(=O)c(O)cc1C(=O)Nc1ccc(F)cc1F [compound 711] | 4.6 ± 0.8 µM | sub-micromolar | 0.75 ± 0.3 µM | 10.2 | 4.5 µM (≈ 1.38 µg/mL) | 0.32 | 247 | 184 µM | – | –
Cc1cc(O)c(=O)c(O)cc1C(=O)N1CCSC1 [compound 712] | 6.4 ± 0.8 µM | – | 0.77 ± 0.5 µM | – | 18 µM (≈ 4.81 µg/mL) | 0.36 | – | 116 ± 67.6 µM | – | –
COC(=O)[C@H](CCSC)NC(=O)c1cc(O)c(=O)c(O)cc1C [compound 796] | 36 ± 24.1 µM | – | 1.1 ± 0.1 µM | – | 18 µM (≈ 6.14 µg/mL) | – | – | 83.3 ± 40.2 µM | – | –
Cc1cc(O)c(=O)c(O)cc1C(=O)N1CCN(C(=O)c2ccco2)CC1 [compound 800] | 16.5 ± 11.4 µM | – | 0.52 ± 0.2 µM | – | 26 µM (≈ 9.32 µg/mL) | – | – | 46.3 ± 10.2 µM | – | –
Cc1cc(O)c(=O)c(O)cc1C(=O)N1CCN(C2CC2)CC1 [compound 871] | 36.6 ± 3.6 µM | – | 1.15 ± 0.4 µM | – | 50 µM (≈ 15.2 µg/mL) | -0.0192 | – | 88.2 ± 43.3 µM | -0.1 | –
Cc1cc(O)c(=O)c(O)cc1C(=O)N1CCN(C(=O)C2COc3ccccc3O2)CC1 (stereo not drawn) [compound 876] | 9.2 ± 3.2 µM | – | 0.7 ± 0.4 µM | – | 9 µM (≈ 3.84 µg/mL) | 0.273 | – | 39.2 ± 40.6 µM | -0.0739 | –
Cc1cc(O)c(=O)c(O)cc1C(=O)N1CCN(C(=O)c2cccnc2)CC1 [compound 918] | 43.8 ± 10.7 µM | – | 1.45 ± 0.4 µM | – | 50 µM (≈ 18.5 µg/mL) | – | – | 127 ± 98.1 µM | – | –
Cc1cc(O)c(=O)c(O)cc1C(=O)N1CCN(c2ncccn2)CC1 [compound 1016] | 24.6 ± 40 µM | – | 0.9 µM | – | 18 µM (≈ 6.16 µg/mL) | – | – | 5.1 ± 2.7 µM | – | –
Cc1cc(O)c(=O)c(O)cc1C(=O)N1CCN(C(c2ccc(F)cc2)c2ccc(F)cc2)CC1 [compound 1017] | 3.9 ± 1.4 µM | – | 5.6 µM | – | 6 µM (≈ 2.8 µg/mL) | – | – | 29.9 ± 10.7 µM | – | > 2 µM
Cc1cc(O)c(=O)c(O)cc1C(=O)N1CCN(Cc2c(F)cccc2Cl)CC1 [compound 1021] | 10.4 ± 7.3 µM | – | 3.05 ± 0.6 µM | – | 4.5 µM (≈ 1.83 µg/mL) | – | – | 44 ± 46.2 µM | – | > 2 µM
